The values below come from patent US8304234B2, “Compositions and methods for delivery of genetic material” (The Trustees of the Universtiy of Pennsylvania, priority 1993, dated 2012).

Assay [1] deals with tumor cells transfected with DNA encoding neu. Description: Tumor challenge model, tumor cells transfected with DNA encoding neu.
Description: In experiments designed to compare the immunogenic response elicited by genetic vaccination and protein vaccination, animal models were designed using tumor cells that specifically express a foreign target protein. Three immune competent mouse models have been developed which express foreign antigens. Three clonal tumor cell lines which are derived from the Balb/c mouse strain are used. […] Subclones have been selected which can display foreign antigens in an unrecognized form. […] Using these models, the immune response elicited by genetic vaccination against an antigen can be measured.
A DNA construct was designed to test the effectiveness of a genetic vaccine against human p185neu in mice. […] The animal model used was described above. Tumor cells were transfected with DNA encoding neu, confirmed to express the protein and implanted into the animal. Controls included untransfected tumor lines.
Controls included unvaccinated animals and animals administered the p185neu protein.
Assay [2] deals with tumor cells transfected with DNA encoding GA733. Description: Tumor challenge model, tumor cells transfected with DNA encoding GA733.
Description: Using these models, the immune response elicited by genetic vaccination against an antigen can be measured.
A DNA construct was designed to test the effectiveness of a genetic vaccine against human GA733 in mice. […] The animal model used was described above. Tumor cells were transfected with DNA encoding GA733, confirmed to express the protein and implanted into the animal. Controls included untransfected tumor lines.
Genetically immunized animals were vaccinated with plasmid pGA733-2, described in Example 14, following the method described above. Controls included unvaccinated animals and animals administered the GA733 protein.

Turning to “p185 protein: p185neu protein administered to control animals”, the “effect on transfected tumors” value in assay [1] (neu-transfected tumors, vaccinated mice) was “some reduction in tumor size”. Besides, the effect on mortality entry in assay [1] (vaccinated mice bearing tumors) is reported as “no effect on mortality”.

B1: GA733 protein: GA733 protein administered to control animals (protein, UniProt P16422 24-314, looked up)
Epithelial cell adhesion …: QEECVCENYKLAVNCFVNNNRQCQCTSVGAQNTVICSKLAAKCLVMKAEMNGSKLGRRAKPEGALQNNDGLYDPDCDESGLFKAKQCNGTSMCWCVNTAGVRRTDKDTEITCSERVRTYWIIIELKHKAREKPYDSKSLRTALQKEITTRYQLDPKFITSILYENNVITIDLVQNSSQKTQNDVDIADVAYYFEKDVKGESLFHSKKMDLTVNGEQLDLDPGQTLIYYVDEKAPEFSMQGLKAGVIAVIVVVVIAVVAGIVVLVISRKKRMAKYEKAEIKEMGEMHRELNA
On to B1, for which the “effect on transfected tumors” value in assay [2] (GA733-transfected tumors, vaccinated mice) was “some reduction in tumor size”. Also, the effect on mortality result in assay [2] (vaccinated mice bearing tumors) is on record as “no effect on mortality”.
